In PubChem BioAssay (NCI):
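Results reflect a 48-hour exposure of cells in 96-well plates to compound at five concentrations. GI50 marks 50% less growth. Definition used: TGI = concentration required for complete inhibition of growth.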

Columns and labels:
Assay in all cases: NCI-60 cell line screen, 48 h
786-0 renal = tested on: 786-0 renal
ACHN renal = tested on: ACHN renal
EKVX NSCLC = tested on: EKVX NSCLC
HCT-116 colon = tested on: HCT-116 colon
HCT-15 colon = tested on: HCT-15 colon
HT29 colon = tested on: HT29 colon
SK-OV-3 ovarian = tested on: SK-OV-3 ovarian
TK-10 renal = tested on: TK-10 renal
NCI-H522 lung = tested on: NCI-H522 lung
OVCAR-5 ovarian = tested on: OVCAR-5 ovarian

Structure (SMILES)	TGI (786-0 renal) [µM]	TGI (ACHN renal) [µM]	TGI (EKVX NSCLC) [µM]	TGI (HCT-116 colon) [µM]	TGI (HCT-15 colon) [µM]	TGI (HT29 colon) [µM]	TGI (SK-OV-3 ovarian) [µM]	TGI (TK-10 renal) [µM]	GI50 (786-0 renal) [µM]	GI50 (ACHN renal) [µM]	GI50 (EKVX NSCLC) [nM]	GI50 (HCT-116 colon) [nM]	GI50 (HCT-15 colon) [µM]	GI50 (HT29 colon) [µM]	GI50 (NCI-H522 lung) [µM]	TGI (NCI-H522 lung) [µM]	GI50 (OVCAR-5 ovarian) [µM]	TGI (OVCAR-5 ovarian) [µM]	GI50 (SK-OV-3 ovarian) [µM]	GI50 (TK-10 renal) [µM]
CCOC(=O)NC(=O)c1cn(CCCOC(=O)CCCCCCCCC(=O)OCCCn2cc(C(=O)NC(=O)OCC)c(=O)[nH]c2=O)c(=O)[nH]c1=O	84.5	42.1	> 100	> 100	68.8	> 100	> 100	57.9	–	–	–	–	–	–	–	–	–	–	–	–
N#CSCC1CC(O)(c2ccccc2)C(c2ccccc2)C(c2ccc(F)cc2)O1 (centres undefined)	9.08	11.4	7.58	2.9	10.2	11.6	> 90.6	6.3	3.05	3.42	2460	1280	3.05	2.61	2.4	7.24	7.24	19.4	28.6	2.38
O=C(O)c1ccc([N+](=O)[O-])c2c(=O)c3ccccc3[nH]c12	> 100	> 100	–	> 100	> 100	> 100	> 100	–	–	–	–	–	–	–	–	> 100	–	> 100	–	–
COC[C@H]1OC(=O)c2coc3c2[C@@]1(C)C1=C(C3=O)[C@@H]2CCC(=O)[C@@]2(C)C[C@H]1OC(C)=O	> 100	> 100	> 100	> 100	> 100	97.8	23.5	> 100	–	–	–	–	–	–	–	> 71.9	–	> 100	2.22	–
Cc1cc(-c2nc3ccc(O)cc3s2)ccc1N	> 100	> 100	58.3	> 100	> 100	> 100	> 100	> 100	29.2	53.9	4070	43900	> 100	37.5	30	> 100	82.6	> 100	36.9	76.8
COc1ccc(C=NC23CC4CC(CC(C4)C2)C3)cc1	> 100	> 100	> 100	> 100	> 100	> 100	> 100	> 100	–	–	–	–	–	–	–	> 100	–	> 100	–	–
C#CC[C@H](c1nc2cc(Cl)ccc2c(=O)n1Nc1ccccc1)N(CCCN)C(=O)c1cccc(Cl)c1F	2.63	3.89	–	1.3	5.68	1.32	1.59	2.8	1.15	1.73	–	40.3	2.15	0.337	0.0898	0.935	0.419	2.56	0.116	1.39
Cn1c2ccccc2c2nnc(N/N=C/c3ccccn3)nc21	0.758	> 21.4	> 32	> 38.4	> 100	> 100	21.9	> 57.8	0.256	0.35	293	349	0.374	0.529	0.574	33	1.27	> 72.4	0.421	0.413
COc1ccc(C2=C(c3cn(C)c4ccccc34)C(=O)NC2=O)cc1OC	> 25	> 25	–	> 25	> 25	> 25	> 25	> 25	8.28	6.35	–	6680	6.4	6.78	7.65	> 21.9	> 25	> 25	6.72	9.2
Cc1ccc2c(=O)[nH]sc2c1	15.4	21.6	30.6	> 100	39.4	32.3	> 100	33.9	–	–	–	–	–	–	–	8.26	–	> 100	–	–
O=Cc1[nH]c2ccccc2c1Br	66.3	82.7	> 100	38.1	–	58.6	44.9	74.3	–	–	–	–	–	–	–	> 100	–	> 100	–	–
Cc1cc2c(c(C#N)c1C)NC(=O)C(CC(=O)O)C2=O (centres undefined)	> 100	> 100	> 100	> 100	> 100	> 100	> 100	> 100	–	–	–	–	–	–	–	–	–	> 100	–	–
O=C(c1ccc(NCN2C(=O)CCC2=O)cc1)c1ccc(NCN2C(=O)CCC2=O)cc1	> 100	> 100	> 100	> 100	> 100	> 100	–	> 100	–	–	–	–	–	–	–	> 100	–	> 100	–	–
O=C1NC2(O)c3ccccc3C(=O)C2(O)N1c1ccccc1 (centres undefined)	> 100	–	> 100	> 100	> 100	> 100	> 100	> 100	–	–	–	–	–	–	–	> 100	–	> 100	–	–
Cc1nn2c(/C=C3/C(=O)Nc4ccc(Cl)cc43)c(-c3ccccc3)nc2s1	5.8	14.4	–	4.61	31.9	13.9	5.03	8.79	2.37	2.96	–	1900	4.65	4.03	4.26	17.9	8.38	25.9	2.25	3.3
CO/N=C1/NC(=O)/C(=C/c2ccc3ncccc3c2)S1	> 25	> 25	–	> 25	> 25	> 25	> 25	> 25	23.4	10.6	–	17400	9.13	16.8	12.3	> 25	6.16	> 25	7.78	8.01
CC(=O)O[C@@H]1CC(C)C2CC2C2=C(C(O)OC2O)[C@@H]1C(C)CCC=C(C)C (some centres undefined)	40.3	90.5	> 100	32.7	49.5	35.5	–	90	–	–	–	–	–	–	–	31.5	–	35.1	–	–
